Measurements as given in ChEMBL document CHEMBL5233274, “Current Landscape and Future Perspective of Oxazolidinone Scaffolds Containing Antibacterial Drugs” (J Med Chem, 2021).
Values after ≈ are worked out from the molar mass of the structure shown.

Key:
Format in all cases: functional
Enterococcus = test: Antibacterial activity against vancomycin-resistant Enterococcus assessed as inhibition of bacterial growth by CLSI protocol based method
Staphylococcus aureus [1] = test: Antibacterial activity against methicillin-resistant Staphylococcus aureus assessed as inhibition of bacterial growth by CLSI protocol based method
Staphylococcus aureus [2] = test: Antibacterial activity against Staphylococcus aureus ATCC 29213 assessed as inhibition of bacterial growth by CLSI protocol based method
Staphylococcus aureus [3] = test: Antibacterial activity against methicillin-resistant Staphylococcus aureus assessed as inhibition of bacterial growth incubated for 18 to 24 hrs by CLSI protocol based Tryptic soy broth method; conditions: time 18-24 hrs
Staphylococcus aureus [4] = test: Antibacterial activity against Staphylococcus aureus ATCC 25923 assessed as inhibition of bacterial growth incubated for 18 to 24 hrs by CLSI protocol based Tryptic soy broth method; conditions: time 18-24 hrs
Enterococcus faecalis [5] = test: Antibacterial activity against Enterococcus faecalis ATCC 29212 assessed as inhibition of bacterial growth incubated for 18 to 24 hrs by CLSI protocol based Tryptic soy broth method; conditions: time 18-24 hrs
[6] = test system: Staphylococcus epidermidis; test: Antibacterial activity against Staphylococcus epidermidis ATCC 12228 assessed as inhibition of bacterial growth incubated for 18 to 24 hrs by CLSI protocol based Tryptic soy broth method; conditions: time 18-24 hrs
Staphylococcus aureus [7] = test: Antibacterial activity against Staphylococcus aureus NCIM 5257 assessed as inhibition of bacterial growth incubated for 24 hrs by serial broth dilution method
Bacillus subtilis [8] = test: Antibacterial activity against Bacillus subtilis NCIM 2097 assessed as inhibition of bacterial growth incubated for 24 hrs by serial broth dilution method
Escherichia coli [9] = test: Antibacterial activity against Escherichia coli NCIM 2065 assessed as inhibition of bacterial growth incubated for 24 hrs by serial dilution method
Pseudomonas aeruginosa [10] = test: Antibacterial activity against Pseudomonas aeruginosa NCIM 5210 assessed as inhibition of bacterial growth incubated for 24 hrs by serial dilution method
Klebsiella pneumoniae = test: Antibacterial activity against Klebsiella pneumoniae NCIM 5289 assessed as inhibition of bacterial growth incubated for 24 hrs by serial dilution method
Enterococcus faecalis [11] = test: Antibacterial activity against Streptococcus faecalis NCIM 2080 assessed as inhibition of bacterial growth incubated for 24 hrs by serial dilution method
Escherichia coli [12] = test: Antibacterial activity against Escherichia coli assessed as inhibition of bacterial growth measured per 100 uL incubated for 24 hrs by agar well diffusion method
Pseudomonas aeruginosa [13] = test: Antibacterial activity against Pseudomonas aeruginosa assessed as inhibition of bacterial growth measured per 100 uL incubated for 24 hrs by agar well diffusion method
Staphylococcus aureus [14] = test: Antibacterial activity against Staphylococcus aureus assessed as inhibition of bacterial growth measured per 100 uL incubated for 24 hrs by agar well diffusion method
Candida albicans = test: Antifungal activity against Candida albicans assessed as inhibition of fungal growth incubated measured per 100 uL incubated for 24 hrs by agar well diffusion method
Bacillus subtilis [15] = test: Antibacterial activity against Bacillus subtilis assessed as inhibition of bacterial growth measured per 100 uL incubated for 24 hrs by agar well diffusion method
Saccharomyces cerevisiae = test: Antifungal activity against Saccharomyces cerevisiae assessed as inhibition of fungal growth incubated measured per 100 uL incubated for 24 hrs by agar well diffusion method

SMILES: CC(=O)NC[C@H]1CN(c2ccc(N3CCN(/N=C/c4c(Cl)cccc4[N+](=O)[O-])CC3)c(F)c2)C(=O)O1
- MIC (Enterococcus): 8 µg/mL (≈ 15.4 µM)
- MIC (Staphylococcus aureus [1]): 8 µg/mL (≈ 15.4 µM)
- MIC (Staphylococcus aureus [2]): 8 µg/mL (≈ 15.4 µM)

SMILES: CC(=O)NC[C@H]1CN(c2ccc(OCc3nc(C)c(C)nc3C)c(F)c2)C(=O)O1
- MIC (Staphylococcus aureus [3]): 4 µg/mL (≈ 9.94 µM)
- MIC (Staphylococcus aureus [4]): 8 µg/mL (≈ 19.9 µM)
- MIC (Enterococcus faecalis [5]): 16 µg/mL (≈ 39.8 µM)
- MIC [6]: 4 µg/mL (≈ 9.94 µM)

SMILES: CC(=O)NC[C@H]1CN(c2ccc(N3CCN(/N=C/c4cccc([N+](=O)[O-])c4)CC3)c(F)c2)C(=O)O1
- MIC (Enterococcus): 2 µg/mL (≈ 4.13 µM)
- MIC (Staphylococcus aureus [1]): 1 µg/mL (≈ 2.06 µM)
- MIC (Staphylococcus aureus [2]): 2 µg/mL (≈ 4.13 µM)

SMILES: Cc1nc(C)c(COc2ccc(N3C[C@H](CNC(=O)C(Cl)Cl)OC3=O)cc2F)nc1C
- MIC (Staphylococcus aureus [3]): 2 µg/mL (≈ 4.24 µM)
- MIC (Staphylococcus aureus [4]): 4 µg/mL (≈ 8.49 µM)
- MIC (Enterococcus faecalis [5]): 8 µg/mL (≈ 17 µM)
- MIC [6]: 4 µg/mL (≈ 8.49 µM)

SMILES: Cc1nc(C)c(COc2ccc(N3C[C@H](CNC(=O)c4ccco4)OC3=O)cc2)nc1C
- MIC (Staphylococcus aureus [3]): 64 µg/mL (≈ 147 µM)
- MIC (Staphylococcus aureus [4]): 128 µg/mL (≈ 293 µM)
- MIC (Enterococcus faecalis [5]): > 128 µg/mL
- MIC [6]: 64 µg/mL (≈ 147 µM)

SMILES: Cc1nc(C)c(COc2ccc(N3C[C@H](CNC(=O)c4ccco4)OC3=O)cc2F)nc1C
- MIC (Staphylococcus aureus [3]): 32 µg/mL (≈ 70.4 µM)
- MIC (Staphylococcus aureus [4]): 32 µg/mL (≈ 70.4 µM)
- MIC (Enterococcus faecalis [5]): 128 µg/mL (≈ 282 µM)
- MIC [6]: 16 µg/mL (≈ 35.2 µM)

SMILES: O=C(/C=C/c1ccc(O)cc1)c1ccc(-c2ccc(N3C[C@H](CO)OC3=O)cc2)cc1
- MIC (Staphylococcus aureus [7]): 3.12 µg/mL (≈ 7.52 µM)
- MIC (Bacillus subtilis [8]): 3.12 µg/mL (≈ 7.52 µM)
- MIC (Escherichia coli [9]): 3.12 µg/mL (≈ 7.52 µM)
- MIC (Pseudomonas aeruginosa [10]): 3.12 µg/mL (≈ 7.52 µM)
- MIC (Klebsiella pneumoniae): 3.12 µg/mL (≈ 7.52 µM)
- MIC (Enterococcus faecalis [11]): 3.12 µg/mL (≈ 7.52 µM)

SMILES: O=C(/C=C/c1ccc([N+](=O)[O-])cc1)c1ccc(-c2ccc(N3C[C@H](CO)OC3=O)cc2)cc1
- MIC (Staphylococcus aureus [7]): 3.12 µg/mL (≈ 7.03 µM)
- MIC (Bacillus subtilis [8]): 3.12 µg/mL (≈ 7.03 µM)
- MIC (Escherichia coli [9]): 3.12 µg/mL (≈ 7.03 µM)
- MIC (Pseudomonas aeruginosa [10]): 3.12 µg/mL (≈ 7.03 µM)
- MIC (Klebsiella pneumoniae): 3.12 µg/mL (≈ 7.03 µM)
- MIC (Enterococcus faecalis [11]): 3.12 µg/mL (≈ 7.03 µM)

SMILES: Cc1nc(C)c(COc2ccc(N3C[C@H](CNC(=O)CCl)OC3=O)cc2F)nc1C
- MIC (Staphylococcus aureus [3]): 2 µg/mL (≈ 4.58 µM)
- MIC (Staphylococcus aureus [4]): 8 µg/mL (≈ 18.3 µM)
- MIC (Enterococcus faecalis [5]): 8 µg/mL (≈ 18.3 µM)
- MIC [6]: 4 µg/mL (≈ 9.16 µM)

SMILES: CC(=O)NC[C@H]1CN(c2ccc(N3CCN(/N=C/Cn4c([N+](=O)[O-])cnc4C)CC3)c(F)c2)C(=O)O1
- MIC (Enterococcus): 4 µg/mL (≈ 7.96 µM)
- MIC (Staphylococcus aureus [1]): 1 µg/mL (≈ 1.99 µM)
- MIC (Staphylococcus aureus [2]): 1 µg/mL (≈ 1.99 µM)

SMILES: O=C(/C=C/c1ccccc1O)c1ccc(-c2ccc(N3C[C@H](CO)OC3=O)cc2)cc1
- MIC (Staphylococcus aureus [7]): 3.12 µg/mL (≈ 7.52 µM)
- MIC (Bacillus subtilis [8]): 3.12 µg/mL (≈ 7.52 µM)
- MIC (Escherichia coli [9]): 3.12 µg/mL (≈ 7.52 µM)
- MIC (Pseudomonas aeruginosa [10]): 3.12 µg/mL (≈ 7.52 µM)
- MIC (Klebsiella pneumoniae): 3.12 µg/mL (≈ 7.52 µM)
- MIC (Enterococcus faecalis [11]): 3.12 µg/mL (≈ 7.52 µM)

SMILES: COCC(=O)NC[C@H]1CN(c2ccc(OCc3nc(C)c(C)nc3C)cc2)C(=O)O1
- MIC (Staphylococcus aureus [3]): 64 µg/mL (≈ 154 µM)
- MIC (Staphylococcus aureus [4]): > 128 µg/mL
- MIC (Enterococcus faecalis [5]): > 128 µg/mL
- MIC [6]: 128 µg/mL (≈ 309 µM)

SMILES: Cc1nc(C)c(COc2ccc(N3C[C@H](CO)OC3=O)cc2F)nc1C
- MIC (Staphylococcus aureus [3]): 64 µg/mL (≈ 177 µM)
- MIC (Staphylococcus aureus [4]): 64 µg/mL (≈ 177 µM)
- MIC (Enterococcus faecalis [5]): 64 µg/mL (≈ 177 µM)
- MIC [6]: 128 µg/mL (≈ 354 µM)

SMILES: Cc1nc(C)c(COc2ccc(N3C[C@H](CNC(=O)CCl)OC3=O)cc2)nc1C
- MIC (Staphylococcus aureus [3]): 8 µg/mL (≈ 19.1 µM)
- MIC (Staphylococcus aureus [4]): 8 µg/mL (≈ 19.1 µM)
- MIC (Enterococcus faecalis [5]): 16 µg/mL (≈ 38.2 µM)
- MIC [6]: 8 µg/mL (≈ 19.1 µM)

SMILES: O=C1NC(Cc2ccc(Nc3nc(-c4ccccc4F)cs3)cc2)CO1 (stereo not drawn)
- MIC (Escherichia coli [12]): 12.5 µg
- MIC (Pseudomonas aeruginosa [13]): 12.5 µg
- MIC (Staphylococcus aureus [14]): 12.5 µg
- MIC (Candida albicans): 12.5 µg
- MIC (Bacillus subtilis [15]): 12.5 µg
- MIC (Saccharomyces cerevisiae): 12.5 µg

SMILES: O=C1NC(Cc2ccc(Nc3nc(-c4ccc(Br)cc4)cs3)cc2)CO1 (stereo not drawn)
- MIC (Escherichia coli [12]): 12.5 µg
- MIC (Pseudomonas aeruginosa [13]): 12.5 µg
- MIC (Staphylococcus aureus [14]): 6.25 µg
- MIC (Candida albicans): 12.5 µg
- MIC (Bacillus subtilis [15]): 6.25 µg
- MIC (Saccharomyces cerevisiae): 12.5 µg

SMILES: CC(=O)NC[C@H]1CN(c2ccc(N3CCN(/N=C/c4ccc([N+](=O)[O-])o4)CC3)c(F)c2)C(=O)O1
- MIC (Enterococcus): 1 µg/mL (≈ 2.11 µM)
- MIC (Staphylococcus aureus [1]): 1 µg/mL (≈ 2.11 µM)
- MIC (Staphylococcus aureus [2]): 0.25 µg/mL (≈ 0.527 µM)

SMILES: Cc1nc(C)c(COc2ccc(N3C[C@H](CNC(=O)C(Cl)Cl)OC3=O)cc2)nc1C
- MIC (Staphylococcus aureus [3]): 4 µg/mL (≈ 8.82 µM)
- MIC (Staphylococcus aureus [4]): 8 µg/mL (≈ 17.6 µM)
- MIC (Enterococcus faecalis [5]): 16 µg/mL (≈ 35.3 µM)
- MIC [6]: 8 µg/mL (≈ 17.6 µM)

SMILES: O=C1NC(Cc2ccc(Nc3nc(-c4ccc(F)cc4)cs3)cc2)CO1 (stereo not drawn)
- MIC (Escherichia coli [12]): 12.5 µg
- MIC (Pseudomonas aeruginosa [13]): 12.5 µg
- MIC (Staphylococcus aureus [14]): 12.5 µg
- MIC (Candida albicans): 12.5 µg
- MIC (Bacillus subtilis [15]): 12.5 µg
- MIC (Saccharomyces cerevisiae): 12.5 µg

SMILES: CC(=O)NC[C@H]1CN(c2ccc(OCc3nc(C)c(C)nc3C)cc2)C(=O)O1
- MIC (Staphylococcus aureus [3]): 8 µg/mL (≈ 20.8 µM)
- MIC (Staphylococcus aureus [4]): 16 µg/mL (≈ 41.6 µM)
- MIC (Enterococcus faecalis [5]): 32 µg/mL (≈ 83.2 µM)
- MIC [6]: 16 µg/mL (≈ 41.6 µM)
